Source: US12410174B1, “Small molecular inhibitors of sting signaling compositions and methods of use” (TYERELL IMMUNOTHERAPEUTICS INC, priority 2020, dated 2025)
“Also recorded” adds a separate entry of the source.

Experiments:
[1] = tested on: STING signaling; test: qPCR of IFNβ1 / Cxcl10 in normal hTERT cells after ISD transfection; type: cell-based, human
Procedure: (§1) Example 11: qPCR total RNA were reverse-transcribed using M-MLV Reverse Transcriptase (Promega). Real-time PCR was performed using Taqman Gene Expression Assay (Applied Biosystems) for innate immune genes and inflammatory cytokines.

[2] = tested on: STING signaling; test: Western blot of STING, pTBK1 and pIRF3 in hTERT cells after ISD transfection; type: cell-based, human; details: 6 hours after ISD transfection
Procedure: Example 8: Immunoblot analysis: Equal amounts of proteins were resolved on sodium dodecyl sulfate (SDS)-Polyacrylamide gels and then transferred to polyvinylidene fluoride (PVDF) membranes (Millipore). After blocking with 5% Blocking Reagent, membranes were incubated with various primary antibodies (and appropriate secondary antibodies). The image was resolved using an enhanced chemiluminescence system ECL (Thermo Scientific) and detected by autoradiography (Kodak). Antibodies: rabbit polyclonal antibody against STING was developed in our laboratory as described previously in Ishikawa et al, 2008; other antibodies were obtained from following sources: β-actin (Sigma Aldrich), p-IRF3 (Cell Signaling), IRF3 (Santa Cruz Biotechnology), p-p65 (Cell Signaling), p65 (Cell Signaling), p-TBK1 (Cell Signaling), TBK1 (Abcam), cGAS (Cell Signaling).

[3] = tested on: STING signaling; test: Luciferase live cell assay, type I IFN promoter in hTERT-pIFNβ-Glu cells after ISD transfection; type: cell-based, human; details: hTERT-pIFNβ-Glu cells
Procedure: Inhibition of IFNβ expression was measured by Luciferase induction at 24 hours after transfection of ISD, Mock is shown (210), ISD treatment only (220) was used as a control, according to an embodiment of the invention;
Example 1: Identification of small molecule antagonists of STING. In the presence of cytosolic DNA species, STING becomes activated to drive the transcription of cytokines such as type I IFN. Compounds binding to STING via TSA were subsequently examined for their ability to prevent cytosolic DNA species from activating the type I interferon (IFN) promoter, using a live cell assay. This assay comprised immortalized human fibroblasts that were stably transfected with the type I IFN promoter driving luciferase as well as the CMV promoter driving SEAP (hTERT-pIFNβ-Glu). The live cell assay has previously been disclosed in PCT/JS2019/025380 entitled IFN-βETA REPORTER SYSTEM FOR IMMORTALIZED PRIMARY CELLS inventor Glen N. Barber, which was filed Apr. 2, 2018 and published as WO2019195285, and which is herein incorporated by reference in its entirety and for all purposes. The ability of the small molecules to prevent activation of the type I IFN promoter and the transcription of luciferase, but not SEAP in response to cytosolic DNA species was assessed. The activation of STING, typically by CDNs, in turn activates the transcription factors NF-κB and IRF3, both of which are required to induce the transcriptional stimulation of the Type I IFN promoter, but not the CMV promoter as IRF3 and NF-kB transcription factor binding sites are not contained in the CMV promoter. The assay identified the small molecule Compound Y1 in the first screen (HTS), where the level of luciferase was not able to activate the type I IFN promoter or induce the expression of luciferase (see Table I).
Example 4: hTERT-BJ1 Telomerase Fibroblasts (hTERT) were originally purchased from Clontech and were cultured in 4:1 ratio of DMEM:Medium 199 supplement with 10% FBS, 4 mM L-Glutamine and 1 mM sodium pyruvate at 37° C. in a 5% CO2-humidified atmosphere. hTERT-BJ1 Telomerase Fibroblasts stably expressing the luciferase gene under the control of the interferon-beta promoter and SEAP gene under control of the CMV promoter) (hTERT-pIFNβ-Glu) were generated by the Barber laboratory.
Example 7: Luciferase assay: hTERT-BJ1 Telomerase Fibroblasts stably expressing the luciferase gene under the control of the interferon-beta promoter and SEAP gene under control of the CMV promoter) (hTERT-pIFNβ-Glu) were generated by the Barber laboratory. Luciferase assay was performed using Secrete-Pair Dual Luminescence Assay Kit from GeneCopoeia following the manufacturer's protocol.

[4] = tested on: TREX1-deficient mice; test: Treatment of TREX1 knockout (TKO) mice: survival and heart histopathology; type: in vivo, mouse
Procedure: Example 12: Mouse Treatment: Trex1 Hetero knockout mice (Trex1^+/−) were generated by crossing the hetero mice. Mouse genotypes from tail biopsies were determined using Real Time PCR with specific probes designed for each gene by commercial vendor (Transnetyx). Trex1 KO (TKO) mice (4-5 weeks old) were intraperitoneally injected with 25 μg Z811 per mouse in 200 μL 1% DMSO in PBS. The mice were injected three times a week for 5 months. The survival rates were evaluated.
Example 13: Histopathology. Mice are sacrificed and the heart tissues were fixed in 10% formalin for 48 hours.

[5] = tested on: STING signaling; test: Confocal analysis of STING trafficking and IRF3 translocation in hTERT cells; type: cell-based, human; details: 6 hours after ISD transfection
Procedure: FIG. 2E are photographs showing confocal analysis of STING trafficking using anti-Sting performed at 6 hours after ISD transfection with Y1+220/without 220, Mock is shown (210), ISD treatment only (220) was used as control, treatment same as in FIG. 2A, according to an embodiment of the invention;
Example 10: Immunofluorescence Microscopy: Cells were cultured and treated in their appropriate media on Lab-Tek II chamber slides. Cell were fixed with 4% paraformaldehyde for 15 minutes in at 37° C. and permeabilized with 0.05% Triton X-100 for 5 minutes at room temperature. Immunostaining was performed with rabbit-anti-STING polyclonal, rabbit-anti-IRF3 (Santa Cruz Biotechnology) or rabbit-anti-p65 (Cell Signaling) followed by fluorescence conjugated secondary antibodies (FITC-goat-anti-rabbit) (Invitrogen).

[6] = tested on: STING signaling; test: qPCR of Cxcl10 / Cxcl5 in MEF cells after ISD transfection; type: cell-based, murine
Procedure: MEFs were obtained from E13.5 embryos by a standard procedure. Bone Marrow Derived Macro-phages (BMDM) were isolated from hind-limb femurs of 8-10 weeks old WT and Trex1 KO (TKO) mice. The hematopoietic cells from the bone marrow were cultured in complete DMEM (Invitrogen) including 10 ng/ml of Mouse Recombinant Colony-Stimulating Factor (M-CSF, R&D Systems) for 10 to 14 days.
as §1

## N#Cc1c(NC(=O)c2ccccc2Cl)n(Cc2ccccc2)c2nc3ccccc3nc12 [Compound Y1, N-{1-benzyl-3-cyano-1H-pyrrolo[2,3-ß]quinoxalin-2-yl}-2-chlorobenzamide]
[1]; normal hTERT cells stimulated with ISD, 50 μM, 25 μM or 5 μM
  production of STING-inducible cytokine Cxcl10 (qPCR): robustly inhibited
[1]; normal hTERT cells, 6 hours after ISD transfection
  IFNβ expression (qPCR of IFNβ1): dramatically decreased IFNβ expression and production
[2]
  STING, TBK1 and IRF3 phosphorylation (Western blot): robustly prevented STING phosphorylation and subsequently TBK1 and IRF3 phosphorylation; also recorded: able to prevent the phosphorylation of STING, TBK1 and IRF3
[3]; 10 μM and 50 μM, ISD 3 μg/ml, 24 hours after transfection
  inhibition of activation of the type I IFN promoter (luciferase induction): inhibited activation of the type I IFN promoter; also recorded: exhibited inhibition of the activation of the type I IFN promoter
[3]; 50 μM or 25 μM, in response to ISD
  inhibitory activity of the type I IFN promoter (luciferase induction): showed robust inhibitory activity of the type I IFN promoter
[4]
  inflammation in the heart (H&E staining): Less inflammation in the heart
[4]; intraperitoneal, 25 μg/mouse, 5 months, compared to mock treated
  survival of TREX1-deficient mice: survival was significantly improved over several months; also recorded: extended the life of TREX1-deficient mice
[5]
  IRF3 translocation (confocal analysis): able to prevent
  STING trafficking (confocal analysis): effectively preventing STING trafficking; also recorded: able to prevent
[6]
  Cxcl10 production in response to ISD (qPCR): dramatically decreased
[6]; 50 μM
  Cxcl5 production in response to ISD (qPCR): dramatically decreased
